Experimental data from US20180363057A1, “METHOD FOR EVALUATING INDIVIDUAL RADIOSENSITIVITY AND THE RISK OF ADVERSE EFFECTS” (COMMISSARIAT A L'ENERGIE ATOMIQUE ET AUX ENERGIES …, priority 2015, published 2018).

How the values were obtained:
Format in all cases: cell-based, human
T4EM lymphocytes [1] = assay: 1,10-phenanthroline induced apoptosis of T4EM lymphocytes (AnnexinV); details: for Effect on 1,10-phenanthroline induced apoptosis of T4EM lymphocytes: 80 μg/ml 1,10-phenanthroline, 2 hours, 4 μg/ml rh-sTRAIL or rh-sDR5
Method: Cell suspensions at approximately 5×10^5 cells/ml (or at cell densities specified in the results section) in RPM11640/15% FCS, were irradiated at a dose rate of approximately 0.5 Gy/min with a ^137Cs-source (IBL637; Cis-Bio international/Scherring, Saclay, France), where incubated in the presence of indicated concentrations of recombinant human soluble TRAIL (rh-sTRAlL), recombinant human soluble DR5 (rh-sDR5), anti-TRAIL cytotoxicity-blocking antibody (CD253; clone RIK-2), or of 1,10-phenanthroline (stock solution of 200 mM in DMSO). All experiments described were performed with the same batch of heat inactivated FCS, previously tested for compatibility with our experimental procedures. Incubations of 18 hours or less as specified in results section were at 37° C. and 5% CO2.
(§1) Treated cells were collected and washed with AnnexinV buffer (140mM NaCl, 5mM CaCl2, 10 mM HEPES; ph7.4), and stained with 2.5 μl AnnexinV-FITC in combination with fluorochrome-conjugated CD markers in 100 ul for 30 min. […] For CD253 (mTRAIL) quantification, a compact panel designed to limit the need for compensation including AnnexinV, CD253, CD3, CD4, and CD62L was used.
Cells were washed in AnnexinV-buffer and just prior flow cytometry, 50 μL of AnnexinV-buffer containing 0.2 μg/mL Hoechst 33258 (Molecular Probes, Eugene, Oreg.), was added for dead cell exclusion. Samples were analyzed using a three-laser CyAn LX system, (DakoCytomation, Fort Collins, Colo.) or a 5-laser SORP LSRII (Becton Dickinson). […] All fluorescence signals were log-amplified, and stored in listmode. CompBeads (Becton Dickinson) were used to assist in determination of spill-over in every individual experiment (CD3-FITC was used instead of AnnexinV-FITC) and Fluorescence Minus One (FMO) controls were used where needed, in particular for mTRAIL quantifications (SortWare; Becton Dickinson or Flowjo version 9.6.4; Treestar, Ashland, Oreg.). […]
Data was analyzed using Flowio. […] Subsequently, dead cells were excluded on the basis of HO33258 fluorescence. T Lymphocytes were identified on the basis of positive PETxR (CD3) fluorescence. […]

mTRAIL = assay: Cell-surface mTRAIL (CD253) level by flow cytometry on T4EM lymphocytes; details: 80 μg/ml
Excerpt: TRAIL can be soluble (sTRAIL) or membrane-bound (mTRAIL)(Schneider et al., 1998, J. Exp. Med. 187:1205-1213; Wajant et al., 2001, Oncogene. 20:4101-4106). Under the experimental conditions used for radiation-induced apoptosis of T4EM lymphocytes, the levels of sTRAIL in media were below sandwich ELISA detection level (<20 pg/ml; data not shown). The inventors thus focused their study on mTRAIL. Using a monoclonal antibody panel comprising CD253, they measured the level of cell-surface mTRAIL expression by flow cytometry. A four-fold higher expression of mTRAIL was found on T4EM lymphocytes of “sensitive” compared to “resistant” samples (FIG. 3 A). […]
as §1
Cells were washed in AnnexinV-buffer and just prior flow cytometry, 50 μL of AnnexinV-buffer containing 0.2 μg/mL Hoechst 33258 (Molecular Probes, Eugene, Oreg.), was added for dead cell exclusion. Samples were analyzed using a three-laser CyAn LX system, (DakoCytomation, Fort Collins, Colo.) or a 5-laser SORP LSRII (Becton Dickinson). […]

TRAIL-receptor DR5 = assay: Expression of proapoptotic TRAIL-receptor DR5 in T4EM lymphocytes; details: after 1,10-phenanthroline treatment; data not shown
Excerpt: All fluorochrome-coupled monoclonal antibodies were used at saturating conditions, as determined by titrations. Anti-human CD antibodies came from Becton Dickinson ImmunoCytometry Systems (CD62L-PE, CD62L-PECy5.1, CD14-PECy5.1, CD-235a-PECy5.1, CD27-PECy5.1, CD4-PECy7, CD19-PECy7, CD45RA-APC, CD8-APCH7), from Beckman Coulter (CD3-PETxR) from Biolegend (CD253/TRAIL-PE, CD62L- BV421, CD3-BV605), or from R&D Systems (CD262/DR5-APC). Recombinant human soluble TRAIL (rh-sTRAIL) and recombinant human soluble DR5 ([…] was from R&D Systems, AnnexinV-FITC from Becton Dickinson, and 1,10-phenanthroline from Sigma-Aldrich.

T4EM lymphocytes [2] = assay: Radiation-induced apoptosis of T4EM lymphocytes (AnnexinV labeling, flow cytometry); details: 0.4 μg/ml rh-sTRAIL, 18 hours after irradiation at 0, 0.5, 1, 2 Gy
Excerpt: The sensitivity of subpopulations of human T-lymphocytes to ionizing radiation-induced apoptosis was quantified eighteen hours after irradiation (0-2 Gy) of PBMC samples of healthy blood donors using the previously defined radio sensitivity assay based on immunophenotyping and AnnexinV-labeling. […] Exponential regression coefficients of dose-survival curves were used to classify human PBMC samples according to the radio sensitivity of their T4EM lymphocyte subpopulation, and “sensitive” and “resistant” samples were defined at the two ends of the T4EM radio sensitivity phenotype distribution. […]
as §1
Cells were washed in AnnexinV-buffer and just prior flow cytometry, 50 μL of AnnexinV-buffer containing 0.2 μg/mL Hoechst 33258 (Molecular Probes, Eugene, Oreg.), was added for dead cell exclusion. Samples were analyzed using a three-laser CyAn LX system, (DakoCytomation, Fort Collins, Colo.) or a 5-laser SORP LSRII (Becton Dickinson). […] All fluorescence signals were log-amplified, and stored in listmode. […]

Molecule | Effect on 1,10-phenanthroline induced apoptosis of T4EM lymphocytes (T4EM lymphocytes [1]) | mTRAIL level in treated "resistant" samples versus untreated "sensitive" samples (mTRAIL; 2 hours) | mTRAIL expression in T4EM lymphocytes (mTRAIL; two hours after addition, "resistant" and "sensitive" samples) | Induction of apoptosis in T4EM lymphocytes (T4EM lymphocytes [1]; 80 μg/ml, two hours, no irradiation) | Expression of proapoptotic TRAIL-receptor DR5 (TRAIL-receptor DR5) | Effect on autocrine pro-apoptotic mode of action of mTRAIL in irradiated T4EM lymphocytes (T4EM lymphocytes [2])
rh-sDR5: recombinant human soluble DR5 receptor | inhibited |  |  |  |  | 
c1cnc2c(c1)ccc1cccnc12 [1,10-phenanthroline] |  | always remained lower | increase of mTRAIL expression | rapid induction of apoptosis | increased expression | 
rh-sTRAIL: recombinant human soluble TRAIL, from R&D Systems (protein, UniProt P50591 39-281, looked up, extracellular domain, recombinant human soluble TRAIL, from R&D Systems) extracellular domain: TNELKQMQDKYSKSGIACFLKEDDSYWDPNDEESMNSPCWQVKWQLRQLVRKMILRTSEETISTVQEKQQNISPLVRERGPQRVAAHITGTRGRSNTLSSPNSKNEKALGRKINSWESSRSGHSFLSNLHLRNGELVIHEKGFYYIYSQTYFRFQEEIKENTKNDKQMVQYIYKYTSYPDPILLMKSARNSCWSKDAEYGLYSIYQGGIFELKENDRIFVSVTNEHLIDMDHEASFFGAFLVG | inhibited |  |  |  |  | abolished
